From patent US20250064886A1, “CARDIOVASCULAR AND CEREBROVASCULAR DRUG AND USE THEREOF” (HANGZHOU ADAMERCK PHARMLABS INC., priority 2021, published 2025) come the findings set out here.

Several values for one entry are separate records, joined by “and”; a condition that tells them apart may be missing. Equal entries are not always repeated.

The subject of one data set is tryptase. The experiment in a line: Sensitization risk: tryptase expression (OD, BAPNA) in zebrafish (Example 2). Format: in vivo. The procedure: Experimental method: 2 dpf wild type AB strain zebrafish were randomly selected and placed in a 24-well plate, with each group 6 parallel wells and 10 zebrafish per well. The zebrafish were injected intravenously with samples at a dose of 500 ng/tail and the positive control “C48/80” at a concentration of 1.5 μg/mL, while normal control group was set up. Each well has a capacity of 1 mL.
All experimental groups were given BAPNA by dissolving it in the water. After treatment at 28° C. for 1 day, the liquid was transferred to 96-well plates with 200 μL/well, and the relative absorbance values (OD values) of the expression levels of tryptase in each experimental group were detected using an microplate reader, and the results of the statistical analysis of the OD values were used to evaluate the risk of sensitization by sample. Statistical results were expressed as mean±SE.
Statistical analysis was performed using SPSS software, and p<0.05 indicates significant differences.

Data set [1] has as its system vascular endothelial injury induced thrombosis model in zebrafish. The experiment in a line: Preventative effect on vascular endothelial injury induced thrombosis, ponatinib zebrafish model (Example 1). Format: in vivo. To be noted: 4.00 ng/tail injected. The procedure: Experimental method: 420 tails of 5 dpf wild type AB strain zebrafish were randomly selected and placed in a six-well plate, with 30 fish per well (experimental group). The fish were injected with compound (1), compound (2), compound (3), compound (4), compound (5), compound (6), compound (7), compound (8), compound (9), compound (10), and compound (11) (structural formula shown in Table 1) at a dose of 4.00 ng/tail, with positive control drug acetylsalicylic acid being administered by dissolving it in water at a concentration of 30.0 µg/mL. Normal control group (i.e. zebrafish treated with standard diluted water) and model control group were set up, with a capacity of 3 mL per well (experimental group). Except for normal control group, the remaining experimental groups were all given Punatinib by dissolving it in water to induce vascular endothelial injury induced thrombosis model in zebrafish. The zebrafish were stained with o-dianisidine after co-treatment with ponatinib and samples for a period of time under incubation conditions at 28° C.
After staining, 10 zebrafish in each group were randomly selected and photographed under the microscope, and the intensity of cardiac erythrocyte staining in zebrafish was analyzed using NIS-Elements D 3.20 advanced image-processing software, and the samples were evaluated for the preventative effect on vascular endothelial injury induced thrombosis by the statistical results of cardiac erythrocyte staining intensity.
The preventative effect on thrombosis is calculated as follows: […]
Statistical analysis was performed using SPSS software, and p<0.05 indicates significant differences

Consider `CC(=O)N[C@H](CSCC1OC2OC3C(CSC[C@@H](NC(C)=O)C(=O)[O-])OC(OC4C(CSC[C@@H](NC(C)=O)C(=O)[O-])OC(OC5C(CSC[C@@H](NC(C)=O)C(=O)[O-])OC(OC6C(CSC[C@@H](NC(C)=O)C(=O)[O-])OC(OC7C(CSC[C@@H](NC(C)=O)C(=O)[O-])OC(OC8C(CSC[C@@H](NC(C)=O)C(=O)[O-])OC(OC9C(CSC[C@@H](NC(C)=O)C(=O)[O-])OC(OC1C(O)C2O)C(O)C9O)C(O)C8O)C(O)C7O)C(O)C6O)C(O)C5O)C(O)C4O)C(O)C3O)C(=O)[O-].[Na+].[Na+].[Na+].[Na+].[Na+].[Na+].[Na+].[Na+]` (some centres unmarked) [Compound (1)], for which the “Sensitization risk, in words” value in the data set with tryptase (500 ng/tail) is reported as “no or substantially no sensitization risk”. Further, in the data set on tryptase (500 ng/tail intravenous), the “Relative sensitization risk (compared with positive control group)” value was 13% and the “Sensitization risk (%)” value was determined as 11.1%. Moreover, in the data set with tryptase (500 ng/tail intravenous, 28° C. 1 day, single wells), the “Absorbance value (OD value), parallel wells 1-6” value was 0.05725 and 0.05895 and 0.06195 and 0.06575 and 0.05845 and 0.05605. In addition, in the data set on tryptase (500 ng/tail intravenous, mean of 6 wells), the “Absorbance value (OD value), mean” value is reported as 0.060. Also, the “Preventative effect on thrombosis (%)” value in data set [1] came to 66%. The “Cardiac erythrocyte staining intensity (pixels, mean ± SE)” value in data set [1] (n = 10) stood at 4397 ± 454 pixels. Moreover, the “Cardiac erythrocyte staining intensity (pixels, mean ± SE)” value in data set [1] (n = 10, listed as compound (1)) is listed as 4397 pixels.
